# Test results as given in publication PMC9959096, “Selective α3β4 Nicotinic Acetylcholine Receptor Ligand as a Potential Tracer for Drug Addiction” (International Journal of Molecular Sciences, 2023).
# Like-named read-outs stand apart in the source and are kept apart here.
# Experiments:
# human α4β2 nAChR = target: T1, human α4β2 nAChR (Homo sapiens, UniProt P17787+P43681); assay: Competitive radioligand displacement binding assay, membranes of HEK293 cells stably transfected with human α4β2 nAChR
# T1 construct: expressed in transfected cells
# human α3β4 nAChR [1] = target: T2, human α3β4 nAChR (Homo sapiens, UniProt P30926+P32297); assay: Competitive radioligand displacement binding assay, membranes of HEK293 cells stably transfected with human α3β4 nAChR; settings: for Selectivity Ratios α4β2/α3β4 / Selectivity Ratios α7/α3β4: ratio of Ki values; for Selectivity Ratios α7/α3β4: given as fold
# T2 construct: expressed in transfected cells
# human α7 nAChR [2] = target: T3, human α7 nAChR (Homo sapiens, UniProt P36544); assay: Radioligand displacement binding assay, membranes of SH-SY5Y cells stably transfected with human α7 nAChR; settings: for Selectivity Ratios α4β2/α7: ratio of Ki values
# T3 construct: expressed in transfected cells
# human α3β4 nAChR [3] = target: T2, human α3β4 nAChR; settings: cited from earlier work; for Selectivity Ratios α4β2/α3β4 / Selectivity Ratios α7/α3β4: lead compounds, ratio of Ki values
# human α7 nAChR [4] = target: T3, human α7 nAChR; design: method as in PMID 27774124; settings: lead compounds, ratio of Ki values; cited from earlier work
# [5] = SH-SY5Y membranes, [3H]methyllycaconitine ~0.5 nM per table footnote, mean of two independent experiments, single values in brackets, read-out: Binding Affinity Ki α7
compound,measurement,setting,value
"Fc1cc(-c2cn([C@@H]3CN4CCC3CC4)nn2)ccc1OCc1ccccc1 [AK3, (1R,3S,4R)-3-(4-(4-(Benzyloxy)-3-fluorophenyl)-1H-1,2,3-triazol-1-yl)quinuclidine]",melting point,,173 to 175 °C
same,Ki,human α4β2 nAChR,180 nM
same,Ki,human α3β4 nAChR [1],3.18 nM
same,Selectivity Ratios α4β2/α3β4,human α3β4 nAChR [1],56.6
same,Selectivity Ratios α7/α3β4,human α3β4 nAChR [1],3069
same,Ki,human α7 nAChR [2],9760 nM
same,Selectivity Ratios α4β2/α7,human α7 nAChR [2],0.02
Fc1cccc(-c2cn([C@@H]3CN4CCC3CC4)nn2)c1 [(S)-T2],Selectivity Ratios α4β2/α3β4,human α3β4 nAChR [3],231
same,Selectivity Ratios α7/α3β4,human α3β4 nAChR [3],294
same,Selectivity Ratios α4β2/α7,human α7 nAChR [4],0.79
"Oc1ccc(-c2cn([C@H]3CN4CCC3CC4)nn2)cc1F [AK2, 2-Fluoro-4-(1-((1S,3R,4S)-quinuclidin-3-yl)-1H-1,2,3-triazol-4-yl)phenol]",melting point,,275 °C (dec.)
same,Ki,human α4β2 nAChR,5980 nM
same,Ki,human α3β4 nAChR [1],601 nM
same,Selectivity Ratios α4β2/α3β4,human α3β4 nAChR [1],9.95
same,Selectivity Ratios α7/α3β4,human α3β4 nAChR [1],0.01
same,Ki,human α7 nAChR [2]; [5],4.49 nM
same,Selectivity Ratios α4β2/α7,human α7 nAChR [2],1331
"Fc1cc(-c2cn([C@H]3CN4CCC3CC4)nn2)ccc1OCc1ccccc1 [AK4, (1S,3R,4S)-3-(4-(4-(Benzyloxy)-3-fluorophenyl)-1H-1,2,3-triazol-1-yl)quinuclidine]",melting point,,180 to 181 °C
same,Ki,human α4β2 nAChR,4180 nM
same,Ki,human α3β4 nAChR [1],112 nM
same,Selectivity Ratios α4β2/α3β4,human α3β4 nAChR [1],37.3
same,Selectivity Ratios α7/α3β4,human α3β4 nAChR [1],0.48
same,Ki,human α7 nAChR [2]; [5],53.6 nM
same,Selectivity Ratios α4β2/α7,human α7 nAChR [2],77.9
Oc1ccc(-c2cn([C@@H]3CN4CCC3CC4)nn2)cc1 [(S)-QND8],Selectivity Ratios α4β2/α3β4,human α3β4 nAChR [3],186
same,Selectivity Ratios α7/α3β4,human α3β4 nAChR [3],11.8
same,Selectivity Ratios α4β2/α7,human α7 nAChR [4],15.7
Fc1ccc(-c2cn([C@@H]3CN4CCC3CC4)nn2)cc1 [(S)-T1],Ki,human α3β4 nAChR [3]; selective α3β4 nAChR ligands,< 10 nM
"Oc1ccc(-c2cn([C@@H]3CN4CCC3CC4)nn2)cc1F [AK1, 2-Fluoro-4-(1-((1R,3S,4R)-quinuclidin-3-yl)-1H-1,2,3-triazol-4-yl)phenol]",melting point,,258 °C (dec.)
same,Ki,human α4β2 nAChR,504 nM
same,Ki,human α3β4 nAChR [1],2.28 nM
same,Selectivity Ratios α4β2/α3β4,human α3β4 nAChR [1],221
same,Selectivity Ratios α7/α3β4,human α3β4 nAChR [1],11.7
same,Ki,human α7 nAChR [2]; [5],26.7 nM
same,Selectivity Ratios α4β2/α7,human α7 nAChR [2],18.9
